In patent US20140051762A1, “POLYCATIONIC COMPOUNDS AND USES THEREOF” (priority 2004, published 2014):
Values joined by “and” are separate entries in the source; they are usually repeats but may differ in a detail not shown here. Equal entries are not always repeated.

The compounds below were run on Factor Xa (assay: anti-heparin assay, % Factor Xa inhibition at single concentration (chromogenic substrate S-2765)). Details: Single concentration (10 ug/ml).
Assay type: biochemical
Experimental: The following example illustrates the heparin antagonistic effects of polycationic compounds of the present invention. To determine the anti-heparin activity of the polycationic compounds an assay measuring the percent inhibition using a fixed concentration of polycationic compound or concentrations of polycationic compounds causing lysis of 50% of human red blood cells were conducted.
10 IU of anti-thrombin was dissolved in 10 ml of buffer, resulting in a 1 IU/ml stock solution (250×) of the anti-thrombin. The 1 IU/ml (250×) stock solution of anti-thrombin and a 336 mM stock solution of NaCl were diluted into a total volume of 50 μl buffer so that the final anti-thrombin concentration was 0.004 IU/sample well and the NaCl was 150 mM/sample well. 1 μl of the compound to be tested, final concentration 10 μg/ml (corresponding to 0.5 logarithmic antagonist dilution) is added to the sample well. The samples are mixed and allowed to incubate at room temperature for 20 minutes. 50 μl of factor Xa dissolved in buffer is added to the sample well to a final concentration of 0.14 knat/well (2 μl of the 7.1 kna/1 ml stock solution to a final sample well buffer volume of 100 μl). The samples were mixed and further incubated at room temperature for 10 minutes. 10 μl of a 4 mM stock solution of the substrate S-2765 was added to each sample well for a final concentration of 0.4 mM in each sample well. The samples were mixed and hydrolyses of the chromogenic substrate Z-D-Arg-Gly-Arg-pNA (S-2765), thus liberating the chromophoric group pNA (p-nitroaniline), was monitored at 405 nm. The samples were mixed every 30 seconds to maintain a uniform mixture. ThermoLabsystems Multiskan Spectrum spectrophotometer was used to measure the absorbance spectrums. The increase in absorbance was proportional to the enzyme (factor Xa) activity. The % inhibition of factor Xa was determined using a standard curve.

Compared with `CC(C)(C)c1cc(N)c(SCCN)c(NC(=O)c2cccc(C(=O)Nc3cc(C(C)(C)C)cc(N)c3SCCN)c2)c1` [Compound 3], `CC(C)(C)c1cc(NC(=O)c2cccc(C(=O)Nc3cc(C(C)(C)C)cc(NC(=O)[C@H](N)CCCCN)c3SCCN)c2)c(SCCN)c(NC(=O)[C@H](N)CCCCN)c1` [Compound 4] is lower in “% FactorXa Inhibition” value: 2.855% for the first, 0.9517% for the second.

First: CC(C)(C)c1cc(NC(=O)c2cc(OCCN)cc(C(=O)Nc3cc(C(C)(C)C)cc(NC(=O)[C@H](N)Cc4ccccc4)c3SCCN)c2)c(SCCN)c(NC(=O)[C@H](N)Cc2ccccc2)c1 [Compound 5]
Second: CC(C)(C)c1cc(NC(=O)CCCN)c(SCCN)c(NC(=O)c2cccc(C(=O)Nc3cc(C(C)(C)C)cc(NC(=O)CCCN)c3SCCN)c2)c1 [Compound 6]
The “% FactorXa Inhibition” value of the first is higher: 39.77% for the first, 2.583% for the second.

Going from `CC(C)(C)c1cc(NC(=O)c2cccc(C(=O)Nc3cc(C(C)(C)C)cc(NC(=O)[C@H](N)Cc4ccccc4)c3SCCN)c2)c(SCCN)c(NC(=O)[C@H](N)Cc2ccccc2)c1` [Compound 8] to `CC(C)(C)c1cc(NC(=O)CCCCNC(=N)N)c(SCCNC(=N)N)c(NC(=O)c2cccc(C(=O)Nc3cc(C(C)(C)C)cc(NC(=O)CCCCNC(=N)N)c3SCCNC(=N)N)c2)c1` [Compound 10], the “% FactorXa Inhibition” value rises from 7.41% to 20.8%.

Compared with `CC(C)(C)c1cc(NC(=O)CCCCN)c(SCCN)c(NC(=O)c2cccc(C(=O)Nc3cc(C(C)(C)C)cc(NC(=O)CCCCN)c3SCCN)c2)c1` [Compound 11], `CC(C)(C)c1cc(NC(=O)CCCCNC(=N)N)c(SCCN)c(NC(=O)c2cccc(C(=O)Nc3cc(C(C)(C)C)cc(NC(=O)CCCCNC(=N)N)c3SCCN)c2)c1` [Compound 12] is higher in “% FactorXa Inhibition” value: 1.903% for the first, 9.381% for the second.

Going from `CC(C)(C)c1cc(NC(=O)c2cccc(C(=O)Nc3cc(C(C)(C)C)cc(NC(=O)c4cc(N)ccc4OCCCCCN)c3SCCN)c2)c(SCCN)c(NC(=O)c2cc(N)ccc2OCCCCCN)c1` [Compound 13] to `CC(C)(C)c1cc(N)c(SCCNC(=N)N)c(NC(=O)c2cc(OCCNC(=N)N)cc(C(=O)Nc3cc(C(C)(C)C)cc(N)c3SCCNC(=N)N)c2)c1` [Compound 14], the “% FactorXa Inhibition” value rises from 36.84% to 40.99%.

First: CC(C)(C)c1cc(N)c(SCCN)c(NC(=O)c2cc(C(=O)Nc3cc(C(C)(C)C)cc(N)c3SCCN)c(OCCN)cc2OCCN)c1 [Compound 15]
Second: CC(C)(C)c1cc(N)c(SCCNC(=N)N)c(NC(=O)c2cc(C(=O)Nc3cc(C(C)(C)C)cc(N)c3SCCNC(=N)N)c(OCCNC(=N)N)cc2OCCNC(=N)N)c1 [Compound 16]
The “% FactorXa Inhibition” value of the first is lower: 5.71% for the first, 30.39% for the second.

Compared with `CC(C)(C)c1cc(N)c(SCCNC(=N)N)c(NC(=O)c2cc(C(=O)Nc3cc(C(C)(C)C)cc(N)c3SCCNC(=N)N)c(OCCN)cc2OCCN)c1` [Compound 17], `CC(C)(C)c1cc(NC(=N)N)c(SCCN)c(NC(=O)c2cc(C(=O)Nc3cc(C(C)(C)C)cc(NC(=N)N)c3SCCN)c(OCCN)cc2OCCN)c1` [Compound 18] is lower in “% FactorXa Inhibition” value: 15.02% for the first, 13.26% for the second.

First: CC(C)OC(=O)c1cc(NC(=O)c2cc(OCCN)cc(C(=O)Nc3cc(C(=O)OC(C)C)cc(NC(=O)[C@H](N)CCCNC(=N)N)c3SCCN)c2)c(SCCN)c(NC(=O)[C@H](N)CCCNC(=N)N)c1 [Compound 19]
Second: CC(=O)Nc1cc(C(C)(C)C)cc(NC(=O)c2cccc(C(=O)Nc3cc(C(C)(C)C)cc(NC(C)=O)c3SCCNC(=N)N)c2)c1SCCNC(=N)N [Compound 20]
The “% FactorXa Inhibition” value of the first is higher: 59.82% for the first, 7.852% for the second.

Compared with `CC(C)(C)c1cc(N)c(SCCNC2=NCCN2)c(NC(=O)c2cccc(C(=O)Nc3cc(C(C)(C)C)cc(N)c3SCCNC3=NCCN3)c2)c1` [Compound 21], `CN(C)C(NCCSc1c(N)cc(C(C)(C)C)cc1NC(=O)c1cccc(C(=O)Nc2cc(C(C)(C)C)cc(N)c2SCCNC(N(C)C)=[N+](C)C)c1)=[N+](C)C` [Compound 22] is lower in “% FactorXa Inhibition” value: 1.496% for the first, 1.292% for the second.

Going from `CC(=O)Nc1cc(C(C)(C)C)cc(NC(=O)c2cccc(C(=O)Nc3cc(C(C)(C)C)cc(NC(C)=O)c3SCCN)c2)c1SCCN` [Compound 23] to `CC(=O)Nc1cc(C(C)(C)C)cc(NC(=O)c2cc(OCCN)cc(C(=O)Nc3cc(C(C)(C)C)cc(NC(C)=O)c3SCCN)c2)c1SCCN` [Compound 24], the “% FactorXa Inhibition” value rises from 1.224% to 1.835%.

First: N=C(N)NCCCCC(=O)Nc1cccc(NC(=O)c2cc(C(=O)Nc3cccc(NC(=O)NCCCNC(=N)N)c3SCCN)c(OCCN)cc2OCCN)c1SCCN [Compound 28]
Second: COC(=O)c1cc(NC(=O)c2cc(NC(=O)c3cc(NC(=O)c4cc(N)ccc4OC)ccc3OCCN)ccc2OC)ccc1OCCN [Compound 52]
The “% FactorXa Inhibition” value of the first is lower: 44.3% for the first, 45.48% for the second.

First: COC(=O)c1cc(NC(=O)c2cc(NC(=O)c3cc(NC(=O)c4cc(NC(=O)c5cc(NC(=O)c6cc(N)ccc6OC)ccc5OCCN)ccc4OC)ccc3OCCN)ccc2OC)ccc1OCCN [Compound 53]
Second: COC(=O)c1cc(OCCN)ccc1NC(=O)c1cc(OCCC(C)C)ccc1NC(=O)c1cc(OCCN)ccc1C(O)O [Compound 54]
The “% FactorXa Inhibition” value of the first is higher: 43.03% for the first, 19.99% for the second.

First: NCCc1cc(Br)cc(C#Cc2cccc(C#Cc3cc(Br)cc(CCN)c3)c2)c1 [Compound 55]
Second: Magainin [reference compound]
The “% FactorXa Inhibition” value of the first is higher: 46.5% for the first, 4.419% for the second.

`CC(C)(C)c1cc(N)c(SCCNC(=N)N)c(NC(=O)c2cccc(C(=O)Nc3cc(C(C)(C)C)cc(N)c3SCCNC(=N)N)c2)c1` [Compound 9] was tested, and the “% FactorXa Inhibition” value was 10.88% and 16.25%.

These compounds were tested on heparin (assay: effect on coagulation time and heparin efficacy). Details: Heparin 1 mg/L, Compound 26 0 mg/L.
Experimental: The following example illustrates the effect of a polycationic compound of the present invention on coagulation time. The anti-heparin assay as described herein was used. The assay contained either 1 mg/L, 2 mg/L or 4 mg/I of heparin and increasing amounts of Compound 26 was added.

heparin [reference compound] was tested, and the “Coagulation Time” value was 50.8 s.

For heparin [reference compound], the “Heparin Efficacy” value was 1.

Same assay, conditions: Heparin 2 mg/L, Compound 26 0 mg/L

heparin [reference compound] was tested, and the “Coagulation Time” value was 110.8 s.

For heparin [reference compound], the “Heparin Efficacy” value was 1.

Same assay, conditions: Heparin 4 mg/L, Compound 26 0 mg/L

With heparin [reference compound] the “Coagulation Time” value was 214.9 s.

For heparin [reference compound], the “Heparin Efficacy” value was 1.
